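These data come from cells grown in 96-well plates and exposed to compound for 48 hours at five concentrations. GI50: concentration for 50% inhibition of growth. The concentration for full growth arrest is given as TGI.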
Tests used:
Assay in all cases: NCI anticancer screen, dose series, 48 h
HCT-116 colon = test system: HCT-116 colon
NCI-H23 lung = test system: NCI-H23 lung
SF-295 CNS = test system: SF-295 CNS
HS 578T breast = test system: HS 578T breast
MALME-3M melanoma = test system: MALME-3M melanoma
SK-MEL-28 melanoma = test system: SK-MEL-28 melanoma
BT-549 breast = test system: BT-549 breast
KM12 colon = test system: KM12 colon
MCF7 breast = test system: MCF7 breast
COLO 205 colon = test system: COLO 205 colon
UACC-62 melanoma = test system: UACC-62 melanoma
HCT-15 colon = test system: HCT-15 colon
OVCAR-3 ovarian = test system: OVCAR-3 ovarian
OVCAR-8 ovarian = test system: OVCAR-8 ovarian
HOP-62 NSCLC = test system: HOP-62 NSCLC
NCI-H460 lung = test system: NCI-H460 lung
SR leukemia = test system: SR leukemia
SF-539 CNS = test system: SF-539 CNS

Compound | TGI (HCT-116 colon) [µM] | TGI (NCI-H23 lung) [µM] | TGI (SF-295 CNS) [µM] | TGI (HS 578T breast) [µM] | TGI (MALME-3M melanoma) [µM] | TGI (SK-MEL-28 melanoma) [µM] | TGI (BT-549 breast) [µM] | TGI (KM12 colon) [µM] | TGI (MCF7 breast) [µM] | TGI (COLO 205 colon) [µM] | TGI (UACC-62 melanoma) [µM] | TGI (HCT-15 colon) [µM] | TGI (OVCAR-3 ovarian) [µM] | TGI (OVCAR-8 ovarian) [µM] | TGI (HOP-62 NSCLC) [µM] | TGI (NCI-H460 lung) [µM] | TGI (SR leukemia) [µM] | TGI (SF-539 CNS) [µM] | GI50 (SK-MEL-28 melanoma) [µM] | GI50 (SR leukemia) [µM]
CC1=NN(C(=O)CC(=O)Nc2ccc(C)cc2)C(=O)C1N=Nc1ccc(S(=O)(=O)c2ccc(N=NC3C(=O)N(C(=O)CC(=O)Nc4ccc(C)cc4)N=C3C)cc2)cc1 (configuration not stated) | > 100 | > 100 | > 100 | > 100 | > 100 | > 100 | > 100 | > 100 | > 100 | > 100 | > 100 | > 100 | > 100 | > 100 | > 100 | > 100 | > 100 | > 100 | – | –
CCN(C(C)=O)c1cnc(/C=N/NC(N)=S)c2ccccc12 | > 100 | > 100 | > 68.9 | > 100 | > 100 | > 100 | > 31.1 | > 100 | > 23.8 | > 100 | 11 | > 100 | > 100 | > 34.6 | > 60.1 | > 39.1 | > 65.8 | 13.6 | – | –
O=C(NNCc1ccco1)c1cc2ccccc2[nH]1 | > 100 | > 100 | > 100 | > 100 | > 100 | > 100 | > 90.5 | > 100 | > 46.3 | > 100 | > 100 | > 100 | > 95 | > 86.5 | > 100 | > 100 | > 100 | > 84.4 | – | –
Nc1ccc(CCSSCCc2ccc(N)cc2)cc1 | 31.9 | > 72.6 | > 100 | 66.4 | 41.6 | > 78.6 | 79.1 | > 100 | > 100 | > 100 | 89.1 | > 67.9 | > 88.4 | > 88.2 | > 100 | 86.8 | 31.6 | 63.5 | – | –
CC(=O)c1cccc(Nc2nc3ccc(Cl)cc3c3[nH]c4ccccc4c23)c1 | > 54.5 | > 73.8 | 11.1 | 66.4 | > 100 | > 100 | > 100 | > 100 | > 21.9 | 12.8 | 24.4 | > 100 | 8.16 | 32.7 | 15.4 | 6.41 | > 100 | 30.1 | 16.5 | 4.21
COc1cc([C@H]2CC(=O)C[C@H](c3cc(OC)c(OC)c(OC)c3)C23C(=O)c2ccccc2C3=O)cc(OC)c1OC | 63.7 | > 100 | > 100 | > 100 | > 100 | > 100 | > 100 | > 100 | > 100 | > 100 | > 100 | > 100 | > 100 | > 100 | > 100 | > 100 | > 100 | > 100 | – | –
O=C(Cc1ccc(Cl)cc1)Nc1ccc2oc(-c3ccccc3)nc2c1 | > 100 | > 100 | > 100 | > 100 | > 100 | > 100 | > 100 | > 100 | > 100 | > 100 | > 100 | > 100 | > 100 | > 100 | > 100 | > 100 | > 100 | > 100 | – | –
CCOc1cc2c(cc1O)CC[C@@H]1[C@@H]2CC[C@]2(C)C(N)CC[C@@H]12 (some centres not stated) | 12.6 | 16.7 | 12.5 | 23.2 | 28.2 | 23.6 | 30.8 | 8.03 | 28.1 | 17.3 | 16.8 | 13.8 | 24.7 | 11.2 | 40.4 | 11.6 | 7 | 9.25 | – | –
Nc1nc2n[nH]nc2c(=O)[nH]1 | 8.95 | > 100 | > 33.1 | 20.4 | 16.8 | 9.4 | 37.8 | > 100 | > 100 | 24.3 | 2.62 | > 100 | 73.8 | > 100 | 9.42 | > 89.4 | 20.4 | 1.96 | – | –
NC1CC(Cl)c2c(Cl)sc(Cl)c21 (configuration not stated) | > 100 | > 100 | > 100 | > 100 | > 100 | > 100 | > 100 | > 100 | > 100 | > 100 | > 100 | > 100 | > 100 | > 100 | > 100 | > 100 | > 100 | > 100 | – | –
CC1(c2cccc(Cl)c2)CC(c2cccc(Cl)c2)=C(C#N)C(=C(C#N)C#N)N1 (configuration not stated) | 34.1 | 39 | 33.4 | 34.1 | 35.2 | 74 | 51.2 | 39 | 51.6 | 29.9 | 34.6 | 33.8 | 23 | 42.6 | 41.3 | 94.3 | 65.3 | 37.2 | – | –
C=CC[C@@]1([C@H](C=C)COCc2ccc(OC)cc2)CC[C@]2(C)OC(C)(C)[C@@H](c3ccccc3)N2C1=S | > 100 | > 100 | > 100 | > 100 | > 100 | > 100 | > 100 | > 100 | > 100 | 41.6 | > 100 | > 100 | > 100 | > 100 | > 100 | > 100 | > 100 | > 100 | – | –
O=P1(c2ccccc2)C(c2ccccc2)=CC=C1c1ccccc1 | > 100 | > 100 | > 100 | > 100 | > 100 | > 100 | > 100 | 50.1 | 66.6 | 46.1 | > 100 | 77.3 | 89.8 | 43.4 | > 100 | > 100 | 52.7 | > 100 | – | –
COc1ccc2c(c1)-c1[nH]c3ccc(OC)cc3c1CC2 | 32.4 | 25.8 | 26.3 | 28 | 28.7 | 32.4 | 32.9 | 19 | 89.7 | 37.4 | 28.6 | 24.8 | 32.9 | 27.3 | 30.9 | 32.9 | 53.2 | 33.7 | – | –
CC(C)(C)OC(=O)N1CCC2(C)CC(=O)CC=C12 (configuration not stated) | > 100 | > 100 | > 100 | > 100 | > 100 | > 100 | > 100 | > 100 | > 100 | > 100 | > 100 | > 100 | > 100 | > 100 | > 100 | > 100 | > 100 | > 100 | – | –

Source: PubChem BioAssay (NCI)
